Source: patent US5614527A, “Insecticidal tetrahydrofuran-compound” (Mitsui Toatsu Chemicals, Inc., priority 1994, dated 1997)
Like-named read-outs stand apart in the source and are kept apart here.

What was measured:
[1] = test system: Myzus persicae Sulzer--Green peach aphid; assay: Effect on green peach aphid (mortality, sprayed eggplant seedlings); type: in vivo; conditions: for mortality at 10 ppm / mortality at 100 ppm: Myzus persicae, 48 h; for Mortality (%): 48 hours
Experimental: (§1) 20 parts of a compound of the present invention, 10 parts of Sorpol 355S (made by Toho Chemical Co., Ltd., a surface active agent), 70 parts of xylene were uniformly stirred and mixed to obtain an emulsion. Here, the parts mean parts by weight, which will apply to the following.
Effect on Myzus persicae Sulzer--Green peach aphid
The emulsion of each compound of the present invention prepared according to Formulation Example 1 was diluted with distilled water to a predetermined concentration, and a spreading agent (New Gramn, made by Sankyo Co., Ltd.) was then added thereto so that its concentration might be 0.02%. Then, the thus prepared chemical solution was sprayed over eggplant seedlings of 2nd and 3rd plastochrons, on which green peach aphids had been parasitic, and the seedlings were the cultivated in a hothouse. After 48 hours, the number of the alive green peach aphid was counted to calculate mortality.

[2] = test system: resistant strain of Nepphotettix cincticeptus Unler--Resistant green rice leafhopper; assay: Effect on resistant green rice leafhopper (mortality, treated rice seedlings); type: in vivo; conditions: for mortality at 200 ppm / mortality at 1000 ppm: Nephotettix cincticeps
Experimental: Effect on resistant strain of Nepphotettix cincticeptus Unler--Resistant green rice leafhopper
(§2) Each compound of the present invention was dissolved in acetone to prepare an acetone solution having a predetermined concentration, and 3 ml of the acetone solution was applied over a bundle of several rice seedlings (about third leaf stage). After drying in air, the treated seedlings were covered with a metal gauze cylinder, and ten female adults of resistant green rice leafhopper were introduced into the cylinder. Afterward, this cylinder was placed in a temperature controlled room at 25° C., and after 48 hours, mortality was checked.

[3] = test system: Spodoptera litura Fabricius--Common cutworm; assay: Effect on common cutworm (mortality, leaf immersion); type: in vivo; conditions: second instar larvae, 25° C.; for mortality at 1000 ppm: Spodoptera litura, 72 h; for Mortality (%): 1000 ppm, 72 hours, 4320 min
Experimental: as §1
Effect on Spodoptera litura Fabricius--Common cutworm
The emulsion of each compound of the present invention prepared according to Formulation Example 1 was diluted with distilled water to a predetermined concentration, and a spreading agent New Gramin, made by Sankyo Co., Ltd.) was then added thereto so that its concentration might be 0.02%. Then, 3leaves of Ipomea batatas were fully immersed in the solution. After drying in air, the leaves were placed in a plastic cup having a diameter of 9 cm and a depth of 4 cm, and 10 second instar larvae of common cutworm were allowed to eat the leaves at 25° C. After 72 hours, mortality was checked.

[4] = test system: Laodelphax striatellus Fallen--Smaller brown planthopper; assay: Effect on smaller brown planthopper (mortality, treated rice seedlings); type: in vivo; conditions: female adults, 25° C., 48 hours
Experimental: as §2, with “Effect on Laodelphax striatellus Fallen--Smaller brown planthopper Each” for “Each”, “smaller brown planthopper” for “resistant green rice leafhopper”, “C.” for “C.,”

[5] = Acute toxicity to mice (oral); conditions: mouse, in vivo; oral (stomach tube); male mice 6 weeks old; 14 days observation
Experimental: 5-week-old male mice (Crj: CD-1) were purchased and then tamed for 1 week, and so the mice of 6 weeks old were tested. The mice were bred in a breeding chamber having a temperature of 23°±2° C., a humidity of 50±10%, a ventilation frequency of 15 times/hour and a lighting time of 12 hours/day. A solid feed (CE-2, made by Nippon Clea) was given, and as drinking water, tap water was freely given.
Each compound to be tested was Suspended in acetone:corn oil (1:9) by the use of a high-speed homogenizer, and then orally administered forcedly to the mice to be tested through a stomach tube. The amount of the solution to be administered was 0.1 ml with respect to 10 g of weight (10 ml/kg).
One administration group was constituted of 5 mice, and an observation period was 14 days from the administration.

[6] = 200 ppm, female adults, 25° C., 48 hours, read-out: Mortality (%)
[7] = 1000 ppm, female adults, 25° C., 48 hours, read-out: Mortality (%)

| SMILES | mortality at 10 ppm ([1]; 10 ppm) | mortality at 100 ppm ([1]; 100 ppm) | mortality at 200 ppm [2, 6] | mortality at 1000 ppm [2, 7] | mortality at 1000 ppm [3] | Mortality (%) ([4]; 200 ppm) | Mortality (%) ([4]; 1000 ppm) | LD50 at 336 h [5] | mortality at 200 ppm ([2]; 48 h) | mortality at 1000 ppm ([2]; 48 h) | Mortality (%) [3] | Mortality (%) ([1]; 10 ppm, 2880 min) | Mortality (%) ([1]; 100 ppm) | Mortality (%) ([2]; 200 ppm, female adults, 25° C., 48 hours) | Mortality (%) ([2]; 1000 ppm, female adults, 25° C., 48 hours) |
| --- | --- | --- | --- | --- | --- | --- | --- | --- | --- | --- | --- | --- | --- | --- | --- |
| O=[N+]([O-])N=C1NCCN1CC1CCCO1 (centres unmarked) [Comparative Compound (1), 1-[(tetrahydro-2-furanyl)methyl]-2-(nitroimino)imidazolidine, reference compound] | 0% | 0% | 0% | 30% | 0% | 0% | 20% | – | – | – | – | – | – | – | – |
| O=[N+]([O-])N=C1NCCN1Cc1ccoc1 [Comparative Compound (2), reference compound] | – | – | – | – | 0% | 0% | 40% | – | – | – | – | – | – | – | – |
| O=[N+]([O-])C=C1NCCCN1CC1CCOC1 (centres unmarked) [Comparative Compound (3), reference compound] | – | – | – | – | 0% | – | – | – | – | – | – | – | – | – | – |
| O=[N+]([O-])/N=C1\NCCCN1Cc1ccc(Cl)nc1 [Comparative Compound (4), reference compound] | – | – | – | – | – | – | – | 30 to 100 mg/kg | – | – | – | – | – | – | – |
| O=[N+]([O-])N=C1NCCCN1CC1CCOC1 (centres unmarked) [Compound No. 1, 1-[(tetrahydro-3-furanyl)methyl]-2-(nitroimino)hexahydropyrimidine] | 100% | 100% | – | – | 70% | 100% | 100% | > 300 mg/kg | 100% | 100% | – | – | – | – | – |
| CC1CC(CN2CCCNC2=N[N+](=O)[O-])CO1 (centres unmarked) [Compound No. 2, 1-[(2-methyl-4-tetrahydrofuryl)methyl]-2-(nitroimino)hexahydropyrimidine] | 100% | 100% | – | – | – | 100% | 100% | > 500 mg/kg | 100% | 100% | – | – | – | – | – |
| CC1(C)CC(CN2CCCNC2=N[N+](=O)[O-])CO1 (centres unmarked) [Compound No. 3, 1-[(2,2-dimethyl-4-tetrahydrofuryl)methyl]-2-(nitroimino)hexahydropyrimidine] | 100% | 100% | 100% | 100% | – | 100% | 100% | – | – | – | – | – | – | – | – |
| O=[N+]([O-])N=C1NCCN1CC1CCOC1 (centres unmarked) [Compound No. 4, 1-[(tetrahydro-3-furanyl)methyl]-2-(nitroimino)imidazolidine] | 67% | 100% | 100% | 100% | 100% | 100% | 100% | – | – | – | – | – | – | – | – |
| CC1CC(CN2CCNC2=N[N+](=O)[O-])CO1 (centres unmarked) [Compound No. 5, 1-[(2-methyl-4-tetrahydrofuryl)methyl]-2-(nitroimino)imidazolidine] | 100% | 100% | 100% | 100% | – | 100% | 100% | – | – | – | – | – | – | – | – |
| CC1(C)CC(CN2CCNC2=N[N+](=O)[O-])CO1 (centres unmarked) [Compound No. 6, 1-[(2,2-dimethyl-4-tetrahydrofuryl)methyl]-2-(nitroimino)imidazolidine] | 82% | 100% | 100% | 100% | – | 100% | 100% | – | – | – | – | – | – | – | – |
| CC(=O)N1CCN(CC2CCOC2)C1=N[N+](=O)[O-] (centres unmarked) [Compound No. 7, 1-(methylcarbonyl)-2-(nitroimino)-3-[(tetrahydro-3-furanyl)methyl]imidazolidine] | 63% | 100% | 100% | 100% | 100% | 100% | 100% | – | – | – | – | – | – | – | – |
| CC(=O)N1CCCN(CC2CCOC2)C1=N[N+](=O)[O-] (centres unmarked) [Compound No. 8, 1-(methylcarbonyl)-2-(nitroimino)-3-[(tetrahydro-3-furanyl)methyl]hexahydropyrimidine] | 100% | 100% | 100% | 100% | – | 100% | 100% | – | – | – | – | – | – | – | – |
| CC(C)C(=O)N1CCCN(CC2CCOC2)C1=N[N+](=O)[O-] (centres unmarked) [Compound No. 9, 1-(isopropylcarbonyl)-2-(nitroimino)-3-[(tetrahydro-3-furanyl)methyl]hexahydropyrimidine] | 86% | 100% | 100% | 100% | – | 100% | 100% | – | – | – | – | – | – | – | – |
| CC(=O)N1CCCN(CC2COC(C)C2)C1=N[N+](=O)[O-] (centres unmarked) [Compound No. 10, 1-(methylcarbonyl)-3-[(2-methyl-4-tetrahydrofuryl)methyl]-2-(nitroimino) hexahydropyrimidine] | 100% | 100% | 100% | 100% | 100% | 100% | 100% | – | – | – | – | – | – | – | – |
| CCC(=O)N1CCCN(CC2CCOC2)C1=N[N+](=O)[O-] (centres unmarked) [Compound No. 11, 1-(ethylcarbonyl)-2-(nitroimino)-3-[(tetrahydro-3-furanyl)methyl]hexahydropyrimidine] | – | 100% | 100% | 100% | – | 100% | 100% | – | – | – | 70% | – | – | – | – |
| CCCC(=O)N1CCN(CC2CCOC2)C1=N[N+](=O)[O-] (centres unmarked) [Compound No. 12, 1-(propylcarbonyl)-2-(nitroimino)-3-[(tetrahydro-3-furanyl)methyl]imidazolidine] | 0% | 66% | 100% | 100% | 100% | 100% | 100% | – | – | – | – | – | – | – | – |
| CCC(=O)N1CCCN(CC2CCOC2)C1=N[N+](=O)[O-] (centres unmarked) [Compound No. 13, 1-propionyl-2-(nitroimino)-3-[(tetrahydro-3-furanyl)methyl]hexahydropyrimidine] | – | – | – | – | – | 100% | 100% | – | – | – | 100% | 27% | 100% | 100% | 100% |
